The results in this text go back to patent US20220274997A1, “PIM KINASE INHIBITOR COMPOSITIONS AND USES THEREOF” (Snap Bio, Inc., priority 2019, published 2022).

Test [1] has as its target T1, PIM1 (Homo sapiens, UniProt P11309).
T1 construct: purchased ProQinase, Freiburg, Germany 0186-0000-1
The test is described as follows: Biochemical radiolabeled ATP kinase assay (Reaction Biology), PIM1. The conditions noted are these: 10 μM ATP. From the text:
The second assay used was Perkin Elmer's LANCE® Ultra kinase assay which uses a ULight™-labeled peptide substrate and an appropriate Europium-labeled anti-phospho antibody. When the substrate becomes phosphorylated by a kinase of interest, the phosphorylated site on the substrate is recognized by the Europium-labeled anti-phospho antibody. […] The intensity of light emission is proportional to the level of ULight peptide phosphorylation. A kinase inhibitor reduces the FRET signal, thus providing an accurate and sensitive measure of inhibition potency. […]
(§1) The standard protocol used for PIM3 was performed by Reaction Biology Corporation (Malvern, Pa.) using a capture assay performed in 20 mM HEPES at pH 7.5 containing 10 mM MgCl2, 10 mM MnCl2, 1 mM EGTA, 0.02% Brij35, 0.02 mg/mL BSA, 0.1 mM Na3VO4, 2 mM DTT, 0.02% Brij35, 10 μM ATP, and 20 μM peptide substrate […]. […] The bound ^33P-peptide substrate was quantified by scintillation counting and the disintegrations per minute (dpm) obtained, being directly proportional to the amount of ^33P-peptide produced by PIM3, were used to determine the IC50 for each compound. […]
(§2) The inhibitory activity of each compound against PIM kinases was measured with the radioisotope filter binding assay, a type of substrate phosphorylation assays, available at Reaction Biology Corporation (Mavern, Pa.).

Test [2] addresses T2, PIM2 (Homo sapiens, UniProt Q9P1W9).
T2 construct: purchased ProQinase, Freiburg, Germany 0223-0000-1
As to the kind of experiment: Biochemical radiolabeled ATP kinase assay (Reaction Biology), PIM2. As to conditions: 10 μM ATP.
From the text: Two different assays for measuring kinase inhibitor activity were employed for messing the effectiveness of compounds of the present disclosure for inhibiting PIM kinases. […] The second assay used was Perkin Elmer's LANCE® Ultra kinase assay which uses a ULight™-labeled peptide substrate and an appropriate Europium-labeled anti-phospho antibody. When the substrate becomes phosphorylated by a kinase of interest, the phosphorylated site on the substrate is recognized by the Europium-labeled anti-phospho antibody. […]
as §1
The inhibitory activity of each compound against PIM kinases was measured with the radioisotope filter binding assay, a type of substrate phosphorylation assays, available at Reaction Biology Corporation (Mavern, Pa.). […]

A further test relates to HepG2. As to the kind of experiment: CellTiter-Glo cancer cell growth inhibition, HepG2. The conditions noted are these: Homo sapiens, HepG2, 72 h. The test is classed as cell-based, human. From the text:
(§3) The CellTiter-Glo® Luminescent Cell Viability Assay is a sensitive homogeneous method to determine the number of viable cells in culture, Detection is based on using the luciferase reaction to measure the amount of ATP from viable cells. The amount of ATP in cells correlates with cell viability. Within minutes after a loss of membrane integrity, cells lose the ability to synthesize ATP, and endogenous ATPases destroy any remaining ATP; thus the levels of ATP fall precipitously. The CellTiter-Glo® Reagent does three things upon addition to cells. It lyses cell membranes to release ATP; it inhibits endogenous ATPases, and it provides luciferin, luciferase and other reagents necessary to measure ATP using a bioluminescent reaction. The unique properties of a proprietary stable luciferase.
(§4) All assays were performed by Reaction Biology Corporation (Malvern, Pa.) or ChemDiv, Inc. (San Diego, Calif.). All cell lines were purchased from American Type Culture Collection (ATCC, Manassas, Va.), except Huh 7 (RIKEN, Toyo, Japan) and HepaRG (Life Technologies, Carlsbad, Calif.).
(§5) Stock solutions ([…]) were diluted with cell culture media to produce 500× serial dilutions and […] of final compound dilutions were added to cells in assay plates to screen a series of 10 doses starting at […]. Final DMSO concentration was 0.2%. Assay plates are centrifuged at 100 rpm, 1 minute and kept at 37° C., 5% CO2, humidified atmosphere. […] Luminescence intensity was measured for each well using the Tecan M 1000 microplate reader after 5 min of incubation with CellTiter-Glo Reagent. The number of viable cells in culture was determined based on quantitation of the ATP present in each culture well. […] The EC50 curves were plotted and […] values were calculated using the GraphPad Prism 4 program based on a sigmoidal dose-response equation.

The target in test [3] is T2, PIM2. The test is described as follows: LANCE Ultra kinase assay, PIM2. In kind it is biochemical. The source says: (§6) The second assay used was Perkin Elmer's LANCE® Ultra kinase assay which uses a ULight™-labeled peptide substrate and an appropriate Europium-labeled anti-phospho antibody. When the substrate becomes phosphorylated by a kinase of interest, the phosphorylated site on the substrate is recognized by the Europium-labeled anti-phospho antibody. […] The intensity of light emission is proportional to the level of ULight peptide phosphorylation. A kinase inhibitor reduces the FRET signal, thus providing an accurate and sensitive measure of inhibition potency.
(§7) The assay was performed in 384-well plates in two steps: PIM kinases were mixed with the ULight-substrate (CREBtide) in buffer and incubated for 10 min. Subsequently, ATP and molecules of the present disclosure were added in a kinase buffer at the appropriate concentration and the reactions were incubated for 1 hour, at room temperature in the dark. • After 1 h EDTA was added to stop the kinase reaction, Eu-W1024-labeled anti-phosphoserine-CREB (Ser133) Antibody (anti-phosphoCREBtide specific antibody) was added to the reaction in LANCE Detection buffer. The mixture was allowed to incubate for 30 min to allow binding of the antibody to the phosphorylated site before the plate was read using a Tecan microplate reader
(§8) Kinase Assay Buffer—50 mM HEPES pH7.0.1 mM EGTA, 10 mM MgCl2, 0.01% BRU-35.
(§9) The inhibitory activity of each compound against PIM kinases was measured with the LANCE® Ultra Kinase Assays by ChemDiv, Inc. (San Diego, Calif.).
In general terms: Time-resolved FRET reads energy transfer from a long-lived donor to a nearby acceptor.

For test [4], the target named is T1, PIM1. The test is described as follows: LANCE Ultra kinase assay, PIM1. The test is classed as biochemical.
From the text: as §6, §7, §8, §9

A further test concerns the target T3, PIM3 (Homo sapiens, UniProt Q86V86).
T3 construct: purchased SignalChem, Richmond, Canada P37-10BG
The test is described as follows: Biochemical radiolabeled ATP kinase assay (Reaction Biology), PIM3. The conditions noted are these: for IC50: 10 μM ATP.
From the text: as §6
The basic biochemical assay employs radiolabeled ATP to measure the kinase-catalyzed transfer of radioactive phosphorus to a tyrosine-containing peptide substrate, according to the general equation: […]
Reaction: Substrate+[γ-^33P]−ATP→^33P-Substrate+ADP
The standard protocol used for PIM3 was performed by Reaction Biology Corporation (Malvern, Pa.) using a capture assay performed in 20 mM HEPES at pH 7.5 containing 10 mM MgCl2, 10 mM MnCl2, 1 mM EGTA, 0.02% Brij35, 0.02 mg/mL BSA, 0.1 mM Na3VO4, 2 mM DTT, 0.02% Brij35, 10 μM ATP, and 20 μM peptide substrate […]. […] Reagents were combined and incubation at 30° C. for 30 min, the reaction was initiated by adding [γ-^33P]-ATP (10 ρCi/mL [γ-^33P]-ATP) and incubated for 2 h at 30° C. The reaction was then terminated by the addition of one-third volume of stop reagent (0.25 mM EDTA and 33 mM ATP in dH20). A […] aliquot was removed, spotted onto a P-81 filternat ion exchange paper and washed sequentially with 10% (w/v) chloroacetic acid and dH20 to remove ATP. The bound ^33P-peptide substrate was quantified by scintillation counting and the disintegrations per minute (dpm) obtained, being directly proportional to the amount of ^33P-peptide produced by PIM3, were used to determine the IC50 for each compound. […]
as §2

The next test has as its system A673. The test is described as follows: CellTiter-Glo cancer cell growth inhibition, A673. The test is classed as cell-based. The conditions noted are these: Homo sapiens, A673, 72 h.
From the text: as §3, §4, §5
A general note: Cellular ATP, detected with luciferase, serves as a proxy for viable cell number.

For a further test, the system named is HepaRG. The test is described as follows: CellTiter-Glo cancer cell growth inhibition, HepaRG. The conditions noted are these: Homo sapiens, 72 h. In kind it is cell-based.
From the text: as §3, §4, §5

As a reminder, the IC50 is the point on the concentration scale where inhibition reaches its midpoint. Higher therefore signals a need for much substance. For orientation: EC50 means the midpoint of the concentration-response curve. The low end stands for a more potent agent, the high end for a less potent agent.

Values joined by “and” are separate entries in the source; they are usually repeats but may differ in a detail not shown here. Equal entries are not always repeated.

T1 sequence (P11309 whole entry): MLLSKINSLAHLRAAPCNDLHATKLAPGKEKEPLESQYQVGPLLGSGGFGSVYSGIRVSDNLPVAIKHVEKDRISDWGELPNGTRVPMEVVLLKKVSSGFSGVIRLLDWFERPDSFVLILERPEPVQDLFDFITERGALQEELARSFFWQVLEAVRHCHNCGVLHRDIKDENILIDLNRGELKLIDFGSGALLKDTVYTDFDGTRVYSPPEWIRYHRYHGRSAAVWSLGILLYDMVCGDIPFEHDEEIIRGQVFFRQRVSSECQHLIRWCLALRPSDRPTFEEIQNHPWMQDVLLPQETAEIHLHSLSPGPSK
T2 sequence (Q9P1W9 whole entry): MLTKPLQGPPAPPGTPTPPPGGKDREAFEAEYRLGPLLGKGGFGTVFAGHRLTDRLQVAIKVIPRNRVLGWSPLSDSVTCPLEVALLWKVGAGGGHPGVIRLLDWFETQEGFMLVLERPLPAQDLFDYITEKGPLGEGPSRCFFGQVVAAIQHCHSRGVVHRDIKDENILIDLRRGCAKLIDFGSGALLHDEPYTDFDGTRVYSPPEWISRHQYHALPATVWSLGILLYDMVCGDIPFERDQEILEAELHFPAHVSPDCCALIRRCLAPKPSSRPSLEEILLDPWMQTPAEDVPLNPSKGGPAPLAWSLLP

For `O=C1NC(=O)c2c1c1c3ccccc3[nH]c1c1c2c2cc(F)c(O)cc2n1CCN1CCOCC1` [Compound 19, 3-fluoro-2-hydroxy-13-(2-morpholin-4-ylethyl)-12,13-dihydro-5H-indolo[2,3-a]pyrrolo[3,4-c]carbazole-5,7(6H)-dione], the IC50 against PIM1 [1] was 0.98 nM; on PIM2 [2], 6.7 nM; at PIM2 [3] (ATP 0.1 mM), 3.2 nM; against PIM2 [3] (ATP 1 mM), 4.9 nM; against PIM1 [4] (ATP 0.1 mM) it was 0.23 nM; against PIM1 [4] (ATP 1 mM), 0.82 nM. At PIM3, the IC50 is 0.2 nM. Besides, the EC50 in the test with HepG2 stood at 34 nM; with A673, 10 nM; in the test on HepaRG, 48 nM.

Regarding `O=C1NC(=O)c2c1c1c3cc(F)c(O)cc3[nH]c1c1c2c2ccccc2n1CCN1CCOCC1` [Compound 18, 3-fluoro-2-hydroxy-12-(2-morpholin-4-ylethyl)-12,13-dihydro-5H-indolo[2,3-a]pyrrolo[3,4-c]carbazole-5,7(6H)-dione], the IC50 on PIM1 [1] was 1.8 nM; on PIM2 [2], 7 nM and 7.4 nM; against PIM2 [3] (ATP 1 mM) it was 41 nM; against PIM1 [4] (ATP 1 mM) it was 1.7 nM; on PIM3, 0.25 nM. In the test with HepG2, this compound came in with an EC50 of 76 nM. On PIM3, the “Selectivity among PIM1-3 (IC50 plots, FIGS. 1A-1C)” value was “PIM3 selectivity”.
